From patent publication US20090246273A1, “Ketorolac Sublingual Spray for the Treatment of Pain” (priority 2008, published 2009)

Legend:
[1] = In vivo absorption of ketorolac spray from the sublingual cavity (plasma levels vs intravenous); parameters: species or system rabbit; details: rabbits
Description: These experiments determine the bioavailability of ketorolac after transmucosal administration to the sublingual tissue in rabbit and compare it to that after intravenous administration.
The transmucosal absorption of ketorolac was measured using an in vivo technique in rabbits. Following introduction of lidocaine local anesthesia, a catheter was placed in the marginal ear artery of the rabbit for blood sample collection. For intravenous administration, a catheter was placed in the marginal ear vein of the rabbit and ketorolac aqueous solution (0.5 mg/kg, 0.1 mL) was administered; a sterile drug solution was prepared by filtration (double 0.22 μm filters). A dose of […] ketorolac was injected into the marginal ear vein cannula followed by a 0.1 mL flush with 10% (v/v) heparin/normal saline solution to keep the cannula patent.
For sublingual spray administration, the ketorolac dose (3 mg/kg, 0.1 mL) of the ketorolac formulation was applied by spray to the sublingual mucosa of the rabbit.
Aliquot parts of 0.5 mL blood samples were collected at predetermined time points, collected into pre-heparinized tubes and immediately placed on ice. […]
Bioavailability of sublingually administered drug was calculated by comparing the plasma drug concentration between sublingual and intravenous delivery routes and expressed as a percentage of the intravenous bioavailability. […]

[2] = rapid metabolism of ketorolac; background on the intravenous mode of delivery; cited from earlier work

SMILES: O=C(c1ccccc1)c1ccc2n1CCC2C(=O)O (stereo not drawn) [ketorolac, 5-benzoyl-2,3-dihydro-1H-Pyrrolizine-1-carboxylic acid]
- time of peak plasma concentration following transmucosal administration ([1]; sublingual spray 3 mg/kg single dose, n=3): approximately 10 minutes
- absorption following transmucosal administration through the sublingual route (comparing areas under the plasma concentration versus time curves) ([1]; sublingual spray 3 mg/kg vs intravenous 0.5 mg/kg, over 180 minutes): rapidly and completely absorbed
- half-life [2]: 4 to 5 h
